Measured values published in PubChem BioAssay (NCI).
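1) Cells in 96-well plates. 2) Compound, 48 h, 5 concentrations. 3) Linear interpolation between surrounding doses. 4) Unreached endpoint = highest concentration. At the TGI there is no net growth.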

Experiments:
Assay in all cases: inhibition of tumour cell growth, NCI panel, 48 h
[1] = tested on: 786-0 renal
[2] = tested on: A498 renal
[3] = tested on: A549 NSCLC
[4] = tested on: ACHN renal
[5] = tested on: BT-549 breast
[6] = tested on: CAKI-1 renal
[7] = tested on: CCRF-CEM leukemia
[8] = tested on: COLO 205 colon
[9] = tested on: DU-145 prostate
[10] = tested on: EKVX NSCLC
[11] = tested on: HCC-2998 colon
[12] = tested on: HCT-116 colon
[13] = tested on: HCT-15 colon
[14] = tested on: HL-60(TB) leukemia
[15] = tested on: HOP-62 NSCLC
[16] = tested on: HOP-92 NSCLC
[17] = tested on: HS 578T breast
[18] = tested on: HT29 colon
[19] = tested on: IGROV1 ovarian
[20] = tested on: K-562 leukemia
[21] = tested on: KM12 colon
[22] = tested on: LOX IMVI melanoma
[23] = tested on: M14 melanoma
[24] = tested on: MALME-3M melanoma
[25] = tested on: MCF7 breast
[26] = tested on: MDA-MB-231 breast
[27] = tested on: MDA-MB-435
[28] = tested on: MOLT-4 leukemia
[29] = tested on: NCI-H226 lung
[30] = tested on: NCI-H23 lung
[31] = tested on: NCI-H460 lung
[32] = tested on: NCI-H522 lung
[33] = tested on: NCI/ADR-RES ovarian
[34] = tested on: OVCAR-3 ovarian
[35] = tested on: OVCAR-4 ovarian
[36] = tested on: OVCAR-5 ovarian
[37] = tested on: OVCAR-8 ovarian
[38] = tested on: PC-3 prostate
[39] = tested on: RPMI-8226 leukemia
[40] = tested on: RXF 393 renal
[41] = tested on: SF-268 CNS
[42] = tested on: SF-295 CNS
[43] = tested on: SF-539 CNS
[44] = tested on: SK-MEL-2 melanoma
[45] = tested on: SK-MEL-28 melanoma
[46] = tested on: SK-MEL-5 melanoma
[47] = tested on: SK-OV-3 ovarian
[48] = tested on: SN12C renal
[49] = tested on: SNB-19 CNS
[50] = tested on: SNB-75 CNS
[51] = tested on: SR leukemia
[52] = tested on: SW-620 colon
[53] = tested on: T-47D breast
[54] = tested on: TK-10 renal
[55] = tested on: U251 CNS
[56] = tested on: UACC-257 melanoma
[57] = tested on: UACC-62 melanoma
[58] = tested on: UO-31 renal

## O=C1c2ccccc2S(=O)(=O)c2c1cccc2[N+](=O)[O-]
[1]
  TGI: 3.13 µM
[2]
  TGI: > 8.45 µM
[3]
  TGI: > 10 µM
[4]
  TGI: 8.04 µM
[5]
  TGI: > 8.34 µM
[6]
  TGI: 9.83 µM
[7]
  TGI: 4.19 µM
[8]
  TGI: 2.77 µM
[9]
  TGI: > 10 µM
[10]
  TGI: > 8.6 µM
[11]
  TGI: > 10 µM
[12]
  TGI: 2.63 µM
[13]
  TGI: 2.95 µM
[14]
  TGI: 4.97 µM
[15]
  TGI: > 10 µM
[16]
  TGI: 9 µM
[17]
  TGI: > 10 µM
[18]
  TGI: > 7.01 µM
[19]
  TGI: 5.08 µM
[20]
  TGI: > 10 µM
[21]
  TGI: 5.08 µM
[22]
  TGI: 5.21 µM
[23]
  TGI: 3.4 µM
[24]
  TGI: 3.02 µM
[25]
  TGI: 3.31 µM
[26]
  TGI: 5.36 µM
[27]
  TGI: 3.64 µM
[28]
  TGI: 6.04 µM
[29]
  TGI: > 10 µM
[30]
  TGI: > 8.17 µM
[31]
  TGI: > 10 µM
[32]
  TGI: 3.09 µM
[33]
  TGI: 6.55 µM
[34]
  TGI: 2.51 µM
[35]
  TGI: 4.6 µM
[36]
  TGI: > 10 µM
[37]
  TGI: 5.46 µM
[38]
  TGI: > 9.02 µM
[39]
  TGI: 5.94 µM
[40]
  TGI: 8.44 µM
[41]
  TGI: > 9.38 µM
[42]
  TGI: > 10 µM
[43]
  TGI: 4.34 µM
[44]
  TGI: > 10 µM
[45]
  TGI: 5.25 µM
[46]
  TGI: 2.46 µM
[47]
  TGI: > 10 µM
[48]
  TGI: 6.56 µM
[49]
  TGI: > 10 µM
[50]
  TGI: > 9.55 µM
[51]
  TGI: 5.28 µM
[52]
  TGI: 3.47 µM
[53]
  TGI: 5.9 µM
[54]
  TGI: > 10 µM
[55]
  TGI: > 8.28 µM
[56]
  TGI: 4.76 µM
[57]
  TGI: 3.48 µM
[58]
  TGI: 3.92 µM
